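Test compounds were applied to cells in 96-well plates for 48 hours at 5 doses. GI50: concentration for 50% inhibition of growth. Definition used: TGI = concentration required for complete inhibition of growth.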
How the values were obtained:
Assay in all cases: inhibition of tumour cell growth, NCI panel, 48 h
HCT-15 colon = system: HCT-15 colon
KM12 colon = system: KM12 colon
OVCAR-4 ovarian = system: OVCAR-4 ovarian
SW-620 colon = system: SW-620 colon
A549 NSCLC = system: A549 NSCLC
HCC-2998 colon = system: HCC-2998 colon
HS 578T breast = system: HS 578T breast
ACHN renal = system: ACHN renal
HOP-92 NSCLC = system: HOP-92 NSCLC
NCI-H522 lung = system: NCI-H522 lung

Compound: CCN(CC)c1ccc(/C=C/C=C2C(=O)NC(=S)NC2=O)cc1
- TGI (HCT-15 colon): > 100 µM
- TGI (KM12 colon): > 100 µM
- TGI (OVCAR-4 ovarian): > 100 µM
- TGI (SW-620 colon): > 100 µM
- TGI (A549 NSCLC): > 100 µM
- TGI (HCC-2998 colon): > 100 µM
- TGI (HS 578T breast): > 53.7 µM
- TGI (ACHN renal): > 100 µM
- TGI (HOP-92 NSCLC): > 100 µM

Compound: CCN(CC)c1ccc2cc(C(=O)Nc3ccccn3)c(=N)oc2c1
- TGI (HCT-15 colon): > 100 µM
- TGI (KM12 colon): > 100 µM
- TGI (OVCAR-4 ovarian): > 100 µM
- TGI (SW-620 colon): > 100 µM
- TGI (A549 NSCLC): > 100 µM
- TGI (HCC-2998 colon): > 100 µM
- TGI (HS 578T breast): 88.5 µM
- TGI (ACHN renal): > 100 µM
- TGI (HOP-92 NSCLC): > 100 µM

Compound: Oc1[nH]c2ccccc2c1/C=c1/cc2c(c(-c3ccc(F)cc3)n1)=Nc1ccccc1-2
- GI50 (HCT-15 colon): 0.735 µM
- TGI (HCT-15 colon): 2.43 µM
- GI50 (KM12 colon): 0.363 µM
- TGI (KM12 colon): 1.87 µM
- GI50 (SW-620 colon): 0.438 µM
- TGI (SW-620 colon): 2.43 µM
- GI50 (NCI-H522 lung): 0.218 µM
- TGI (NCI-H522 lung): 0.99 µM
- GI50 (A549 NSCLC): 0.815 µM
- TGI (A549 NSCLC): 2.28 µM
- GI50 (HCC-2998 colon): 0.726 µM
- TGI (HCC-2998 colon): 2.16 µM
- GI50 (HS 578T breast): 0.528 µM
- TGI (HS 578T breast): 3.28 µM
- GI50 (ACHN renal): 1.12 µM
- TGI (ACHN renal): 2.54 µM
- GI50 (HOP-92 NSCLC): 0.162 µM
- TGI (HOP-92 NSCLC): 0.981 µM

Compound: Cc1ccccc1NC(=O)Cc1csc2[n+]1C(=O)/C(=C/c1ccc([N+](=O)[O-])cc1)S2
- TGI (HCT-15 colon): > 100 µM
- TGI (KM12 colon): > 100 µM
- TGI (OVCAR-4 ovarian): 35.3 µM
- TGI (SW-620 colon): > 100 µM
- TGI (A549 NSCLC): > 100 µM
- TGI (HCC-2998 colon): > 100 µM
- TGI (ACHN renal): > 100 µM
- TGI (HOP-92 NSCLC): > 100 µM

Compound: Cc1nc2ccccc2c(/C=C/c2ccc(Cl)cc2)c1C(=O)/C=C/c1ccc(Cl)cc1
- GI50 (HCT-15 colon): 0.787 µM
- TGI (HCT-15 colon): 3.13 µM
- GI50 (NCI-H522 lung): 1.25 µM
- TGI (NCI-H522 lung): 4.77 µM
- GI50 (HCC-2998 colon): 1.53 µM
- TGI (HCC-2998 colon): 3 µM
- GI50 (HS 578T breast): 2.06 µM
- TGI (HS 578T breast): 5.97 µM

Compound: COc1ccc(C(OCC2OC(n3ccc(NC(=O)c4ccccc4)nc3=O)CC2OP2(=S)SCCS2)(c2ccccc2)c2ccc(OC)cc2)cc1 (centres undefined)
- TGI (HCT-15 colon): > 100 µM
- TGI (OVCAR-4 ovarian): 68.6 µM
- TGI (SW-620 colon): 44 µM
- TGI (NCI-H522 lung): 53 µM
- TGI (A549 NSCLC): > 100 µM
- TGI (HS 578T breast): 76.3 µM
- TGI (ACHN renal): 61.5 µM

Compound: COc1ccc2oc(=O)c(-c3csc(C)n3)cc2c1
- TGI (HCT-15 colon): > 100 µM
- TGI (KM12 colon): > 100 µM
- TGI (OVCAR-4 ovarian): > 100 µM
- TGI (SW-620 colon): > 100 µM
- TGI (A549 NSCLC): > 100 µM
- TGI (HCC-2998 colon): > 100 µM
- TGI (HS 578T breast): 79.3 µM
- TGI (ACHN renal): > 100 µM
- TGI (HOP-92 NSCLC): 41.2 µM

Compound: C[C@H]1S[C@H](c2c(Cl)cccc2Cl)N2Cc3ccccc3N=C12
- TGI (HCT-15 colon): 33.7 µM
- TGI (KM12 colon): 27.8 µM
- TGI (OVCAR-4 ovarian): > 100 µM
- TGI (SW-620 colon): > 100 µM
- TGI (A549 NSCLC): 40.3 µM
- TGI (HCC-2998 colon): 29.5 µM
- TGI (HS 578T breast): 42.3 µM
- TGI (ACHN renal): 26.5 µM
- TGI (HOP-92 NSCLC): > 100 µM

Compound: Nc1c(Cl)ncnc1NCCCNc1ncnc(Cl)c1N
- TGI (HCT-15 colon): > 100 µM
- TGI (KM12 colon): > 100 µM
- TGI (OVCAR-4 ovarian): > 100 µM
- TGI (SW-620 colon): > 100 µM
- TGI (NCI-H522 lung): > 100 µM
- TGI (A549 NSCLC): > 100 µM
- TGI (HCC-2998 colon): > 100 µM
- TGI (ACHN renal): > 100 µM
- TGI (HOP-92 NSCLC): > 100 µM

Compound: CSc1c(C(=O)Nc2ccc(Cl)cc2)c(N)n(N)c(=O)c1C#N
- TGI (HCT-15 colon): > 100 µM
- TGI (KM12 colon): > 100 µM
- TGI (OVCAR-4 ovarian): > 100 µM
- TGI (SW-620 colon): > 100 µM
- TGI (NCI-H522 lung): > 100 µM
- TGI (A549 NSCLC): > 100 µM
- TGI (HCC-2998 colon): > 100 µM
- TGI (HS 578T breast): > 100 µM

Compound: Cc1c(/C=N/N(C)C)oc2c1cc(O)c1ncccc12
- TGI (HCT-15 colon): > 100 µM
- TGI (KM12 colon): > 100 µM
- TGI (OVCAR-4 ovarian): 96.6 µM
- TGI (SW-620 colon): > 100 µM
- TGI (NCI-H522 lung): 8.58 µM
- TGI (A549 NSCLC): > 100 µM
- TGI (HCC-2998 colon): > 100 µM
- TGI (ACHN renal): > 100 µM
- TGI (HOP-92 NSCLC): 76.8 µM

Compound: NNC(=O)c1cc(=O)[nH][nH]1
- TGI (HCT-15 colon): > 100 µM
- TGI (KM12 colon): > 100 µM
- TGI (OVCAR-4 ovarian): > 100 µM
- TGI (SW-620 colon): > 100 µM
- TGI (NCI-H522 lung): > 100 µM
- TGI (A549 NSCLC): > 100 µM
- TGI (HS 578T breast): > 100 µM
- TGI (ACHN renal): > 100 µM
- TGI (HOP-92 NSCLC): > 100 µM

Compound: CSC1NC(c2ccc(Cl)cc2)=C(C#N)C(=O)N1C1OCC(OC(C)=O)C(OC(C)=O)C1OC(C)=O (centres undefined)
- TGI (HCT-15 colon): > 100 µM
- TGI (KM12 colon): > 100 µM
- TGI (OVCAR-4 ovarian): > 100 µM
- TGI (SW-620 colon): > 100 µM
- TGI (NCI-H522 lung): > 100 µM
- TGI (HCC-2998 colon): > 100 µM
- TGI (HS 578T breast): > 100 µM
- TGI (ACHN renal): > 100 µM
- TGI (HOP-92 NSCLC): > 100 µM

Compound: CN1c2ccccc2N(C(=O)c2ccccc2)C(CC(=O)O)c2cccn21 (centres undefined)
- TGI (HCT-15 colon): > 100 µM
- TGI (KM12 colon): > 100 µM
- TGI (OVCAR-4 ovarian): > 100 µM
- TGI (SW-620 colon): > 100 µM
- TGI (NCI-H522 lung): > 100 µM
- TGI (A549 NSCLC): > 100 µM
- TGI (HCC-2998 colon): > 100 µM
- TGI (ACHN renal): > 100 µM
- TGI (HOP-92 NSCLC): > 100 µM

Compound: NC(Cc1ccc(S(=O)(=O)O)cc1)C(=O)NC(Cc1ccc(S(=O)(=O)O)cc1)C(=O)O (centres undefined)
- TGI (HCT-15 colon): > 100 µM
- TGI (KM12 colon): > 100 µM
- TGI (OVCAR-4 ovarian): > 100 µM
- TGI (SW-620 colon): > 100 µM
- TGI (NCI-H522 lung): > 100 µM
- TGI (A549 NSCLC): > 100 µM
- TGI (HCC-2998 colon): > 100 µM
- TGI (HS 578T breast): > 100 µM
- TGI (ACHN renal): > 100 µM

Compound: O=C(NC(=S)NC(=O)c1cc(O)c(O)c(O)c1)c1cc(O)c(O)c(O)c1
- TGI (HCT-15 colon): 67.8 µM
- TGI (KM12 colon): 70.5 µM
- TGI (OVCAR-4 ovarian): 46.1 µM
- TGI (SW-620 colon): > 100 µM
- TGI (NCI-H522 lung): 70.3 µM
- TGI (A549 NSCLC): > 100 µM
- TGI (HCC-2998 colon): 87.9 µM
- TGI (ACHN renal): 44.9 µM
- TGI (HOP-92 NSCLC): > 100 µM

Compound: Cc1nc2c(=S)n(C)ncc2[nH]1
- TGI (HCT-15 colon): > 100 µM
- TGI (KM12 colon): > 100 µM
- TGI (OVCAR-4 ovarian): > 100 µM
- TGI (SW-620 colon): > 100 µM
- TGI (NCI-H522 lung): > 100 µM
- TGI (A549 NSCLC): > 100 µM
- TGI (HCC-2998 colon): > 100 µM
- TGI (ACHN renal): > 100 µM

Compound: COc1ccccc1C[C@@H]1OC2(C=CC(=O)C=C2)O[C@H]1Cc1ccccc1OC
- TGI (HCT-15 colon): 27.9 µM
- TGI (KM12 colon): 18.8 µM
- TGI (OVCAR-4 ovarian): 19.9 µM
- TGI (SW-620 colon): 5.98 µM
- TGI (A549 NSCLC): > 50 µM
- TGI (HS 578T breast): 29.3 µM
- TGI (ACHN renal): 17.7 µM
- TGI (HOP-92 NSCLC): 20.1 µM

Compound: CC1=NC(=Cc2ccc([N+](=O)[O-])cc2)C(=O)N1n1c(-c2ccccc2)nc2ccccc2c1=O
- TGI (HCT-15 colon): > 100 µM
- TGI (KM12 colon): > 100 µM
- TGI (SW-620 colon): > 100 µM
- TGI (NCI-H522 lung): 74.5 µM
- TGI (A549 NSCLC): > 100 µM
- TGI (HCC-2998 colon): > 100 µM
- TGI (HS 578T breast): > 100 µM

Compound: CC1C(c2ccc(Cl)cc2)c2cc3c(cc2OC1N1CCOCC1)OCO3 (centres undefined)
- TGI (HCT-15 colon): > 100 µM
- TGI (KM12 colon): > 100 µM
- TGI (SW-620 colon): > 100 µM
- TGI (NCI-H522 lung): > 100 µM
- TGI (A549 NSCLC): > 100 µM
- TGI (HCC-2998 colon): > 100 µM
- TGI (HS 578T breast): 70.4 µM
- TGI (ACHN renal): > 100 µM

Compound: CC1(C)C(=O)C(C)(C)C1=S
- TGI (HCT-15 colon): > 100 µM
- TGI (KM12 colon): > 100 µM
- TGI (OVCAR-4 ovarian): > 100 µM
- TGI (SW-620 colon): > 100 µM
- TGI (NCI-H522 lung): > 100 µM
- TGI (A549 NSCLC): > 100 µM
- TGI (HCC-2998 colon): > 100 µM
- TGI (ACHN renal): > 100 µM

Compound: CN(C)c1cc[n+](-c2nc(/N=C(\[O-])C(F)(F)F)nc3c2ncn3C2CC(O)C(CO)O2)cc1 (centres undefined)
- TGI (HCT-15 colon): > 100 µM
- TGI (KM12 colon): > 100 µM
- TGI (OVCAR-4 ovarian): > 100 µM
- TGI (SW-620 colon): > 100 µM
- TGI (NCI-H522 lung): > 100 µM
- TGI (A549 NSCLC): > 100 µM
- TGI (HCC-2998 colon): > 100 µM
- TGI (HS 578T breast): > 100 µM
- TGI (ACHN renal): > 100 µM

Compound: CCCC(CCN)(CCN)[N+](=O)[O-]
- TGI (HCT-15 colon): > 100 µM
- TGI (KM12 colon): > 100 µM
- TGI (OVCAR-4 ovarian): > 100 µM
- TGI (SW-620 colon): > 100 µM
- TGI (NCI-H522 lung): > 100 µM
- TGI (A549 NSCLC): > 100 µM
- TGI (HS 578T breast): > 100 µM
- TGI (ACHN renal): > 100 µM

Source: PubChem BioAssay (NCI)
